Values joined by “and” are separate entries in the source; they are usually repeats but may differ in a detail not shown here. Equal entries are not always repeated. Toxic doses and inconclusive results are not listed. No stated cut-off is given here; in the data, active means T/C of 150% or more; inactive means T/C below 125%.
Tested on: L1210 leukemia ip in BDF1 mice, survival T/C
Experiment: NCI In Vivo Anticancer Drug Screen. Data for tumor model L1210 Leukemia (intraperitoneal) in B6D2F1 (BDF1) mice
Conditions: endpoint: mean survival time, higher = longer survival
Summary of the method: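 Value reflects the ratio of survival in compound-treated mice to survival in vehicle-treated controls, with both groups carrying the same transplanted tumor.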

[1] = dose: 100.0 mg/kg/injection, schedule: Q04DX003 (ip), vehicle: Klucel (hydroxypropylcellulose) (HPC)
[2] = dose: 200.0 mg/kg/injection, schedule: Q04DX003 (ip), vehicle: Klucel (hydroxypropylcellulose) (HPC)
[3] = dose: 400.0 mg/kg/injection, schedule: Q04DX003 (ip), vehicle: Klucel (hydroxypropylcellulose) (HPC)
[4] = dose: 100.0 mg/kg/injection, schedule: Q01DX001 (ip), vehicle: carboxymethylcellulose (CMC)
[5] = dose: 200.0 mg/kg/injection, schedule: Q01DX001 (ip), vehicle: carboxymethylcellulose (CMC)
[6] = dose: 400.0 mg/kg/injection, schedule: Q01DX001 (ip), vehicle: carboxymethylcellulose (CMC)
[7] = dose: 100.0 mg/kg/injection, schedule: Q01DX009 (ip), vehicle: other
[8] = dose: 200.0 mg/kg/injection, schedule: Q01DX009 (ip), vehicle: other
[9] = dose: 400.0 mg/kg/injection, schedule: Q01DX009 (ip), vehicle: other
[10] = dose: 100.0 mg/kg/injection, schedule: Q04DX003 (ip), vehicle: saline with Tween-80
[11] = dose: 200.0 mg/kg/injection, schedule: Q04DX003 (ip), vehicle: saline with Tween-80
[12] = dose: 400.0 mg/kg/injection, schedule: Q04DX003 (ip), vehicle: saline with Tween-80
[13] = dose: 100.0 mg/kg/injection, schedule: Q01DX009 (ip), vehicle: saline with Tween-80
[14] = dose: 200.0 mg/kg/injection, schedule: Q01DX009 (ip), vehicle: saline with Tween-80

Measured: T/C

O=C(C#Cc1ccccc1)Nc1ccccc1
inactive: [1] 114 % of control | [2] 97 % of control | [3] 98 % of control

O=C1c2ccccc2-c2c(Br)cccc21
inactive: dose: 50.0 mg/kg/injection, schedule: Q04DX002 (ip), vehicle: saline with Tween-80 91 % of control | dose: 100.0 mg/kg/injection, schedule: Q04DX002 (ip), vehicle: saline with Tween-80 91 % of control | dose: 200.0 mg/kg/injection, schedule: Q04DX002 (ip), vehicle: saline with Tween-80 102 % of control

CCCCCCC(C1CCCCC1)C1CCCCC1
inactive: [4] 86 % of control | [5] 102 % of control | [6] 91 % of control

COc1cc(Cl)ccc1NC(=O)C(O)C(O)C(O)C(O)CO (stereo not drawn)
inactive: dose: 100.0 mg/kg/injection, schedule: Q01DX001 (ip), vehicle: other 97 % of control | [7] 100 % of control and 103 % of control | dose: 100.0 mg/kg/injection, schedule: Q04DX002 (ip), vehicle: other 98 % of control and 103 % of control | dose: 100.0 mg/kg/injection, schedule: Q04DX003 (ip), vehicle: carboxymethylcellulose (CMC) 103 % of control | dose: 200.0 mg/kg/injection, schedule: Q01DX001 (ip), vehicle: other 90 % of control | [8] 94 % of control and 97 % of control | dose: 200.0 mg/kg/injection, schedule: Q04DX002 (ip), vehicle: other 98 % of control and 92 % of control | dose: 200.0 mg/kg/injection, schedule: Q04DX003 (ip), vehicle: carboxymethylcellulose (CMC) 100 % of control | dose: 400.0 mg/kg/injection, schedule: Q01DX001 (ip), vehicle: other 101 % of control | [9] 95 % of control and 97 % of control | dose: 400.0 mg/kg/injection, schedule: Q04DX002 (ip), vehicle: other 103 % of control and 113 % of control | dose: 400.0 mg/kg/injection, schedule: Q04DX003 (ip), vehicle: carboxymethylcellulose (CMC) 103 % of control

O=C(Nc1ccc(C2=NCCN2)c(O)c1)c1ccc(C(=O)Nc2ccc(C3=NCCN3)c(O)c2)cc1
inactive: dose: 8.0 mg/kg/injection, schedule: Q01DX Z (ip), vehicle: carboxymethylcellulose (CMC) 103 % of control | dose: 16.0 mg/kg/injection, schedule: Q01DX Z (ip), vehicle: carboxymethylcellulose (CMC) 88 % of control | dose: 31.0 mg/kg/injection, schedule: Q01DX Z (ip), vehicle: carboxymethylcellulose (CMC) 88 % of control | dose: 62.0 mg/kg/injection, schedule: Q01DX Z (ip), vehicle: carboxymethylcellulose (CMC) 90 % of control

O=C(NC(CSSCC(NC(=O)OCc1ccccc1)C(=O)O)C(=O)O)OCc1ccccc1 (stereo not drawn)
inactive: dose: 85.0 mg/kg/injection, schedule: Q01DX009 (ip), vehicle: other 98 % of control | dose: 100.0 mg/kg/injection, schedule: Q01DX009 (ip), vehicle: saline 94 % of control and 98 % of control | dose: 100.0 mg/kg/injection, schedule: Q04DX003 (ip), vehicle: other 98 % of control | dose: 100.0 mg/kg/injection, schedule: Q04DX003 (ip), vehicle: saline 90 % of control | dose: 135.0 mg/kg/injection, schedule: Q01DX009 (ip), vehicle: other 88 % of control | [8] 97 % of control | dose: 200.0 mg/kg/injection, schedule: Q01DX009 (ip), vehicle: saline 118 % of control and 92 % of control | dose: 200.0 mg/kg/injection, schedule: Q04DX003 (ip), vehicle: other 88 % of control | dose: 200.0 mg/kg/injection, schedule: Q04DX003 (ip), vehicle: saline 102 % of control | dose: 300.0 mg/kg/injection, schedule: Q01DX009 (ip), vehicle: other 99 % of control | dose: 400.0 mg/kg/injection, schedule: Q01DX009 (ip), vehicle: saline 94 % of control and 104 % of control | dose: 400.0 mg/kg/injection, schedule: Q04DX003 (ip), vehicle: other 96 % of control | dose: 400.0 mg/kg/injection, schedule: Q04DX003 (ip), vehicle: saline 101 % of control

c1ccc(-c2nc3ccccc3o2)cc1
inactive: dose: 100.0 mg/kg/injection, schedule: Q01DX009 (ip), vehicle: Klucel (hydroxypropylcellulose) (HPC) 92 % of control | [1] 92 % of control | dose: 200.0 mg/kg/injection, schedule: Q01DX009 (ip), vehicle: Klucel (hydroxypropylcellulose) (HPC) 97 % of control | [2] 95 % of control | dose: 400.0 mg/kg/injection, schedule: Q01DX009 (ip), vehicle: Klucel (hydroxypropylcellulose) (HPC) 92 % of control | [3] 103 % of control

CCNC(=O)N=C1SCCS1
inactive: dose: 100.0 mg/kg/injection, schedule: Q04DX002 (ip), vehicle: saline 118 % of control | dose: 200.0 mg/kg/injection, schedule: Q04DX002 (ip), vehicle: saline 118 % of control | dose: 400.0 mg/kg/injection, schedule: Q04DX002 (ip), vehicle: saline 96 % of control

COC(=O)c1cc(C(C)=O)nc2ccccc12
inactive: [10] 94 % of control | [11] 99 % of control | [12] 90 % of control

O=C(N/N=C/c1ccc2c(c1)CCC2)c1ccccc1N=Cc1ccc2c(c1)CCC2
inactive: [1] 86 % of control | [2] 96 % of control | [3] 92 % of control

COC(=O)C1CN=NC1C(=O)OC (stereo not drawn)
inactive: dose: 100.0 mg/kg/injection, schedule: Q04DX003 (ip), vehicle: acetone 98 % of control | dose: 200.0 mg/kg/injection, schedule: Q04DX003 (ip), vehicle: acetone 96 % of control | dose: 400.0 mg/kg/injection, schedule: Q04DX003 (ip), vehicle: acetone 101 % of control

CN=NNc1nc[nH]c1C(=O)OC
inactive: dose: 50.0 mg/kg/injection, schedule: Q01DX001 (ip), vehicle: carboxymethylcellulose (CMC) 118 % of control | [4] 118 % of control | [5] 118 % of control | [6] 113 % of control

CC1=C(C)C2(C)C1(C)C1(C)NN=NC12c1ccccc1 (stereo not drawn)
inactive: [10] 95 % of control | [11] 91 % of control | [12] 101 % of control

COc1ccc(C2=CC(O)CC(c3ccccc3)C2c2ccccc2)cc1 (stereo not drawn)
inactive: [10] 105 % of control | [11] 103 % of control | [12] 91 % of control

CCCCCCCCCCC(=O)CCCC
inactive: [13] 100 % of control | [14] 102 % of control | dose: 400.0 mg/kg/injection, schedule: Q01DX009 (ip), vehicle: saline with Tween-80 104 % of control

CCCCCOC(=O)c1ccc(C)s1
inactive: [4] 90 % of control | [5] 101 % of control | [6] 98 % of control

Cc1cccc(C)c1NCC(=O)NN
inactive: dose: 100.0 mg/kg/injection, schedule: Q04DX002 (ip), vehicle: Klucel (hydroxypropylcellulose) (HPC) 106 % of control | dose: 200.0 mg/kg/injection, schedule: Q04DX002 (ip), vehicle: Klucel (hydroxypropylcellulose) (HPC) 106 % of control | dose: 400.0 mg/kg/injection, schedule: Q04DX002 (ip), vehicle: Klucel (hydroxypropylcellulose) (HPC) 120 % of control

C=CCSc1nc(N)nc2nc[nH]c12
inactive: dose: 50.0 mg/kg/injection, schedule: Q01DX009 (ip), vehicle: saline with Tween-80 122 % of control | [13] 123 % of control | [14] 124 % of control

CCCCCCCCCCCCCCCCCC(=O)N/N=C/c1cc(C(C)(C)C)c(O)c(C(C)(C)C)c1
inactive: [7] 90 % of control | [8] 88 % of control | [9] 96 % of control

CC(=O)N(C1=C(Cl)C(=O)c2ccccc2C1=O)c1ccc(Cl)cc1
inactive: dose: 75.0 mg/kg/injection, schedule: Q01DX001 (ip), vehicle: carboxymethylcellulose (CMC) 93 % of control | dose: 150.0 mg/kg/injection, schedule: Q01DX001 (ip), vehicle: carboxymethylcellulose (CMC) 92 % of control
